Patent US10174035B2, “6-morpholinyl-2-pyrazolyl-9H-purine derivatives and their use as PI3K inhibitors” (Daiichi Sankyo Company, Limited, priority 2015, dated 2019)
≈ marks a conversion by molar mass, not a printed value. Like-named read-outs stand apart in the source and are kept apart here.

Columns and labels:
[1] = target: recombinant PI3K δ enzyme (Homo sapiens (Human), UniProt O00329); test: In vitro enzyme assay (Kinase-Glo luminescent kinase assay), PI3Kδ; format: biochemical
In short: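 Each recombinant human PI3K isoform at 2.29 μg/mL with 60 μM PIP2 and 10 μM ATP in HEPES pH 7.4, NaCl, CHAPS, MgCl2, DTT, 2 hours at room temperature. Remaining ATP read by Kinase-Glo luminescence relative to no-enzyme blanks.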

[2] = Solubility in Japanese Pharmacopeia First Fluid (JP1) and Second Fluid (JP2); format: physicochemical; conditions: thermodynamic from solid, room temperature
Method: A 10 mmol/L solution of the test compound was prepared in DMSO and dispensed 100 μL of 10 mmol/L DMSO stock solutions into labeled glass tubes in duplicate, one for Japanese Pharmacopeia First Fluid (JP1) and second for Japanese Pharmacopeia Second Fluid (JP2). After evaporation of DMSO from each tube, 500 μL of JP1 and JP2 fluid were added in each tube, respectively. These tubes were sonicated for 1 minute and placed on shaker for 30 minutes with an interval of 30 seconds at every 5 minute. Tubes were placed in dark at room temperature for 1 hour and solution was filtered through membrane filter. The filtrate was diluted 2-fold and 10-fold. The resulting test solutions was analyzed and quantified against the standards using UPLC (standard preparation-10 mmol/L solution in DMSO is serially diluted with 50% aqueous acetonitrile solution to prepare 2 solutions; 100 μmol/L standard solution and 5 μmol/L standard solution).

PI3Kγ = PI3Kγ (Homo sapiens (Human), UniProt P48736); test: In vitro enzyme assay (Kinase-Glo), selectivity, PI3Kγ; format: biochemical; conditions: enzyme 2.29 μg/mL; ATP 10 μM; PIP2 60 μM; 2 hours
Method: The Kinase-Glo luminescent kinase assay kit (from Promega) was used to measure kinase activity. In this assay, amount of ATP remaining in solution following a kinase reaction is measured. […] The reaction mixture was incubated for 2 hours at room temperature. At the end of incubation period the equal volume of Kinase-Glo plus (Promega, V3772), was added per well and the luminescence was measured after incubating for 10 minutes at room temperature in dark. Results were calculated by measuring the luminescence units of test samples to blanks containing no enzyme.
(§1) The compounds of the present invention were tested for their selectivity for PI3Kδ over PI3Kα, PI3Kβ and PI3Kγ following the above assay using specific recombinant enzymes (Proteros, Germany) for each kinase. Assay condition of kinase assay (PI3Kα, PI3Kβ, PI3Kγ and PI3Kδ) was as follows.

[3] = test system: eosinophil count in bronchoalveolar lavage fluid; test: Ovalbumin-induced airway eosinophilia model in Brown Norway rats; format: in vivo; conditions: oral, bid; absolute eosinophil count in BAL fluid
Method: The protocols were followed in similar fashion as described in Clin. Exp. Immunol., 2001; 126:9-15 and J. Pharmacol. Exp. Ther., 2011; 337:145-54. Male Brown Norway rats were sensitized by intraperitoneal injection of a suspension of 1 mg of ovalbumin and 100 mg of aluminum hydroxide (in sterile 0.9% saline) on day 0 and 7. On day 14, the compounds were administered to the rats by oral gavage. One hour after oral administration, the animals were placed into a perspex chamber and exposed to an aerosol of 5% ovalbumin for ten minutes. Compounds were administered on Day 14 and Day 15 either once or twice daily. Forty-eight hours after ovalbumin challenge, the animals were euthanized and bronchoalveolar lavage fluid was collected. The cell suspensions were processed and absolute eosinophil count was enumerated.

[4] = test system: eosinophil count in bronchoalveolar lavage fluid; test: House dust mite (HDM) induced chronic asthma model in Balb/c mice; format: in vivo; conditions: oral twice daily from week 3 to week 5; absolute eosinophil count in BAL fluid
Method: The protocol was followed as described in Am. J. Respir. Crit. Care Med., 2004; 169: 378-385. Female Balb/c mice were exposed to purified HDM (Dermatophagoides pteronyssinus) extract, intranasally (25 μg of protein in 20 μl of saline) for 5 days/week for up to five consecutive weeks. Compounds were administered orally twice daily from week 3 to week 5. Forty-eight hours after last HDM exposure, the animals were euthanized and bronchoalveolar lavage fluid was collected. The cell suspensions were processed and absolute eosinophil count was enumerated.

PI3Kα = PI3Kα (Homo sapiens (Human), UniProt P42336); test: In vitro enzyme assay (Kinase-Glo), selectivity, PI3Kα; format: biochemical; conditions: enzyme 2.29 μg/mL; ATP 10 μM; PIP2 60 μM; 2 hours
Method: (§2) The Kinase-Glo luminescent kinase assay kit (from Promega) was used to measure kinase activity. In this assay, amount of ATP remaining in solution following a kinase reaction is measured. The effect of compounds on PI3Kδ inhibition was carried out by adding 2.29 μg/ml of recombinant PI3K δ enzyme (Proteros, Germany) to reaction mixture containing assay buffer (50 mM HEPES, pH 7.4, 50 mM NaCl, 0.05% CHAPS) supplemented with 10 mM MgCl2, 5 mM DTT, 60 μM Phosphatidyl inositol bisphosphate (PIP2) and 10 μM ATP in the absence or presence of different concentrations of the compounds in a final volume of 15 μl/well, in a 384 well plate. The reaction mixture was incubated for 2 hours at room temperature. At the end of incubation period the equal volume of Kinase-Glo plus (Promega, V3772), was added per well and the luminescence was measured after incubating for 10 minutes at room temperature in dark. Results were calculated by measuring the luminescence units of test samples to blanks containing no enzyme.
as §1, with “follows. Enzyme: 2.29 μg/mL; ATP: 10 μM; PIP2 substrate: 60 μM and Reaction Time: 2 hours.” for “follows.”

PI3Kβ = PI3Kβ (Homo sapiens (Human), UniProt P42338); test: In vitro enzyme assay (Kinase-Glo), selectivity, PI3Kβ; format: biochemical; conditions: enzyme 2.29 μg/mL; ATP 10 μM; PIP2 60 μM; 2 hours
Method: as §2
as §1, with “follows. Enzyme: 2.29 μg/mL; ATP: 10 μM; PIP2 substrate: 60 μM and Reaction Time: 2 hours.” for “follows.”

[5] = test system: IFN-γ release in mouse splenocytes; test: Phytohaemagglutinin (PHA)-induced interferon (IFN)-gamma release in mouse splenocytes; set-up: species or system C57BL/6 mouse; conditions: Splenocyte, PHA (10 μg/ml) for 48 hours, IFN-γ by ELISA, read-out: Cell Based IC50

recombinant PI3K δ enzyme, sequence (O00329 whole entry, species assumed, canonical isoform): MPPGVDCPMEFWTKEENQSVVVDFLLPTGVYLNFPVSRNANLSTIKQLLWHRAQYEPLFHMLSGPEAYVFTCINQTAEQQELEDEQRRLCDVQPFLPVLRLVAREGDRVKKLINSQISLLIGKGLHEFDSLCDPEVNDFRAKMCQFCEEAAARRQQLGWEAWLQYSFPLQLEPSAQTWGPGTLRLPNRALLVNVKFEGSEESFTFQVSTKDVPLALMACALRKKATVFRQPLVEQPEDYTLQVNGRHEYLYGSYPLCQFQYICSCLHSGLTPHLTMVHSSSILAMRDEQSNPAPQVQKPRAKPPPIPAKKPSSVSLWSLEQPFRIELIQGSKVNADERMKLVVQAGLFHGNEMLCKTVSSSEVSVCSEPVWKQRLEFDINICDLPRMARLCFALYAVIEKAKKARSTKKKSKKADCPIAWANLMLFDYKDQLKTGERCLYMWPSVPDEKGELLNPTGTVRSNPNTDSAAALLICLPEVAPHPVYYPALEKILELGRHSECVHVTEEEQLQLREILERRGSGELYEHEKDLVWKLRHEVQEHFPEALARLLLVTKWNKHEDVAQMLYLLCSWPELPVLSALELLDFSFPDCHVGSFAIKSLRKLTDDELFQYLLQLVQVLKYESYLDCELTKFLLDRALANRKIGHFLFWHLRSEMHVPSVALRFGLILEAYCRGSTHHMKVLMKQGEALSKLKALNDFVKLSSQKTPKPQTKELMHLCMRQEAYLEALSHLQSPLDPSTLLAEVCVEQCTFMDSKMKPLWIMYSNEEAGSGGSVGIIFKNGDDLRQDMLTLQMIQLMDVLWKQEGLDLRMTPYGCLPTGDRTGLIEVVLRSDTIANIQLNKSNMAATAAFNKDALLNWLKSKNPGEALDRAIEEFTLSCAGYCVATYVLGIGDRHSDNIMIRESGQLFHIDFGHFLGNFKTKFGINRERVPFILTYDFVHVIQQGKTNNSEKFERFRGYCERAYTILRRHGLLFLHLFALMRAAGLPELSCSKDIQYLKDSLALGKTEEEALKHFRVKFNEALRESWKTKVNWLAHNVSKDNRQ
recombinant PI3K δ enzyme, sequence (P27986 whole entry partner, species assumed, canonical isoform): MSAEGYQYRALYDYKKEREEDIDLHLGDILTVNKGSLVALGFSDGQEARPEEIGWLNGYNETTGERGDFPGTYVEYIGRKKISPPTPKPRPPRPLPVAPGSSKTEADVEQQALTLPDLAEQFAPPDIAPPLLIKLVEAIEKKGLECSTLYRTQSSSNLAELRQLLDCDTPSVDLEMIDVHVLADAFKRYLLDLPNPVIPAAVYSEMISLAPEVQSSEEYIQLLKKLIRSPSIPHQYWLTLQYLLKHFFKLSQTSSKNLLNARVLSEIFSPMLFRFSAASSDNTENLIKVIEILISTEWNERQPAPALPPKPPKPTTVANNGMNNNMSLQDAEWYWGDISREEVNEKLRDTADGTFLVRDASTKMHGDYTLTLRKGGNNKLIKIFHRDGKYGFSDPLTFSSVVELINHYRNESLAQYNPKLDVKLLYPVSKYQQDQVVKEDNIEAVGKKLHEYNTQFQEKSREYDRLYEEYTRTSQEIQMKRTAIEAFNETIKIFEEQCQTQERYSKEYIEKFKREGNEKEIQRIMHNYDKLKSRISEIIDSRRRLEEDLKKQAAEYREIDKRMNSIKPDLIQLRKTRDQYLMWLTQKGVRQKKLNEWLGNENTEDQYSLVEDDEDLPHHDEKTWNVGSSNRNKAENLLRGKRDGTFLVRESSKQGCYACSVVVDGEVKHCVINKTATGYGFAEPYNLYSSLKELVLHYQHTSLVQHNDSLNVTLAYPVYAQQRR
PI3Kγ, sequence (P48736 whole entry, species assumed): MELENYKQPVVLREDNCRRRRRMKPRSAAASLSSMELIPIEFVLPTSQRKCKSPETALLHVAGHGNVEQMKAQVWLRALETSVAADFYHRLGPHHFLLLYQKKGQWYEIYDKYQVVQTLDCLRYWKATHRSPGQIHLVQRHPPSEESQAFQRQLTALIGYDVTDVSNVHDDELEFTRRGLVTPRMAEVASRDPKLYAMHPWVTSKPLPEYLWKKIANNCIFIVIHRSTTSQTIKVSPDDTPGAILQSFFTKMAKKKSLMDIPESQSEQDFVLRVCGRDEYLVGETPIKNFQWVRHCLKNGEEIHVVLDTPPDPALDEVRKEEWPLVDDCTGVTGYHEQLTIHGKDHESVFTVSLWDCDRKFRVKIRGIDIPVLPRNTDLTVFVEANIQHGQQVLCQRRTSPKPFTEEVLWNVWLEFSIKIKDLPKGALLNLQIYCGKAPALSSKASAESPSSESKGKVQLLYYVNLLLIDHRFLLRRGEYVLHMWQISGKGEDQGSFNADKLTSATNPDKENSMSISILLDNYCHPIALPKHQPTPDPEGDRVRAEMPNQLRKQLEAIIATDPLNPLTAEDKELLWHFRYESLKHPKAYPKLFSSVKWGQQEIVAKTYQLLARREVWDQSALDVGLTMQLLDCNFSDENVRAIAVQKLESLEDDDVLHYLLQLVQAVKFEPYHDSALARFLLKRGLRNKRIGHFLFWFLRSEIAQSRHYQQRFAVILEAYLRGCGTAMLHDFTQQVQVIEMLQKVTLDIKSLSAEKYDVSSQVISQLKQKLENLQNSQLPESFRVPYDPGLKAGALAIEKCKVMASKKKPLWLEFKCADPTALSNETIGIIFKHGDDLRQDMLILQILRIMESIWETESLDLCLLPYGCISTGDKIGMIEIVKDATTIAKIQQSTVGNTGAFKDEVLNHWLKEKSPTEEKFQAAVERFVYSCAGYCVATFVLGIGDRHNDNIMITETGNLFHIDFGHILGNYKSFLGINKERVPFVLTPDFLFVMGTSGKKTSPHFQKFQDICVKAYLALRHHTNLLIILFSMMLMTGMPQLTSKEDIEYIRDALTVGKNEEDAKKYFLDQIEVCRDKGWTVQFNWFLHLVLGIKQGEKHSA
PI3Kβ, sequence (P42338 whole entry, species assumed): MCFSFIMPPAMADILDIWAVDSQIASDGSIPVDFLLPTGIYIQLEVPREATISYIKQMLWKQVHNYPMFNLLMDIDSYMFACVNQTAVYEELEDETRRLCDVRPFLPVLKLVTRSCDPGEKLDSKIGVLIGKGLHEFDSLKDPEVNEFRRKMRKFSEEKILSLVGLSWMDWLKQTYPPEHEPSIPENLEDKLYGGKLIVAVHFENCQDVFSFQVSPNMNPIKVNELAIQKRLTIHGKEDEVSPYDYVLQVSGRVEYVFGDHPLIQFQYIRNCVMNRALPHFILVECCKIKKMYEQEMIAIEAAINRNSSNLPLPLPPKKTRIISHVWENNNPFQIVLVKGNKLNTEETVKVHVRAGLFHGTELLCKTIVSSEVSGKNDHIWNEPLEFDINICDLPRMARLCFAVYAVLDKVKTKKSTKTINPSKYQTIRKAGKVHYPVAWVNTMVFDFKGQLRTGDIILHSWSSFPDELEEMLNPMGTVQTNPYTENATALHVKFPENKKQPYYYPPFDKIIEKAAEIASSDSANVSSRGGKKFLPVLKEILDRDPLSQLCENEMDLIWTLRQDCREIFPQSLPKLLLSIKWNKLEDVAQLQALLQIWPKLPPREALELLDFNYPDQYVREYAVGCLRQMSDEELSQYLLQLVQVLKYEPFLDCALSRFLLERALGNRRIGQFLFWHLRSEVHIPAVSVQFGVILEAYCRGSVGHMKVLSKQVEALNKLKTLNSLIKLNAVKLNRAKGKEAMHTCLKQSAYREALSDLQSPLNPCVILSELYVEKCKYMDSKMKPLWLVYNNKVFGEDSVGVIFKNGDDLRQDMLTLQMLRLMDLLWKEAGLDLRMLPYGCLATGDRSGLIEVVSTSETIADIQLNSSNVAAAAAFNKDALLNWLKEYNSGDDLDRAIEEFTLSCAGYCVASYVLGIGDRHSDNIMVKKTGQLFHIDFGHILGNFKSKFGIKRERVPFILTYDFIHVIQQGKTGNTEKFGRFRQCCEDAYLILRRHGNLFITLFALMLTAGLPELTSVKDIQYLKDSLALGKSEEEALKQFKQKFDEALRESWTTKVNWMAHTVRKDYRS
PI3Kβ, sequence (P27986 whole entry partner, species assumed): as the sequence (P27986 whole entry partner, species assumed, canonical isoform) above
PI3Kα, sequence (P42336 whole entry, species assumed): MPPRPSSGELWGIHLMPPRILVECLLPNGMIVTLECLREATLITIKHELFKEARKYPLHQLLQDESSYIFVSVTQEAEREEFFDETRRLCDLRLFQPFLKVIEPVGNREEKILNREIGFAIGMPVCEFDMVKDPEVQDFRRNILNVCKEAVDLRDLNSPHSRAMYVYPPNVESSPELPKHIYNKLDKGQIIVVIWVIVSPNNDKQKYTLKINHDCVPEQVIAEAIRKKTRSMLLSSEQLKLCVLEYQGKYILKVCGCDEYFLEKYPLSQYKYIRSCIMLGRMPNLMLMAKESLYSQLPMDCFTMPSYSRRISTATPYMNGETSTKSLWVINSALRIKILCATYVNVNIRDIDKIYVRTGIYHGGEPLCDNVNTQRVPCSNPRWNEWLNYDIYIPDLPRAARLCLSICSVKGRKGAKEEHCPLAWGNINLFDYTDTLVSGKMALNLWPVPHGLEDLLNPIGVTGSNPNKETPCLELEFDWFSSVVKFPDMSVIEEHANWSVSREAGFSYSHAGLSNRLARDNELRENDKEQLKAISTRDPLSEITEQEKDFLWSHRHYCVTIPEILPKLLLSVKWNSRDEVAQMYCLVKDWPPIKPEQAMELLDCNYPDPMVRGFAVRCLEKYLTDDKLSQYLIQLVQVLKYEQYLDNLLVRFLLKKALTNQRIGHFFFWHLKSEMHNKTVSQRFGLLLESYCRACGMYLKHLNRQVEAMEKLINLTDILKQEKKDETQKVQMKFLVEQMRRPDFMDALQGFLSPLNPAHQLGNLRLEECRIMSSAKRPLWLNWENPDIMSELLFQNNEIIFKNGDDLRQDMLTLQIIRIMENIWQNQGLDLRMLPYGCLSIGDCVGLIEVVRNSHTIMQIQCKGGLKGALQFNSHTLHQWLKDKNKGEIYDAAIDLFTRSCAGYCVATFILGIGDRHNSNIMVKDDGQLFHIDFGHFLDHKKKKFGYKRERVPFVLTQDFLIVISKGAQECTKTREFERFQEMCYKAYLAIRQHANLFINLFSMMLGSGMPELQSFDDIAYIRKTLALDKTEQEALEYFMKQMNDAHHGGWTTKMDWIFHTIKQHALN
PI3Kα, sequence (P27986 whole entry partner, species assumed): as the sequence (P27986 whole entry partner, species assumed, canonical isoform) above

Question: Which results are given for `Cn1cc(-c2nc(N3CCOCC3)c3nc(C(=O)N4CCC(N5CCOCC5)CC4)[nH]c3n2)cn1` [Compound No. 58, [2-(1-methyl-1H-pyrazol-4-yl)-6-(morpholin-4-yl)-9H-purin-8-yl][4-(morpholin-4-yl)piperidin-1-yl]methanone]?
Answer: IC50 [1]: 14 nM; IC50 ([1]; enzyme 2.29 μg/mL, ATP 10 μM, PIP2 60 μM, 2 hours): 14 nM; solubility at 30 min ([2]; pH 1.2, simulated gastric fluid, Japanese Pharmacopeia First Fluid (JP1), read-out: Solubility JP1): > 1200 µg/mL; solubility at 30 min ([2]; pH 6.8, aqueous buffer, Japanese Pharmacopeia Second Fluid (JP2), read-out: Solubility JP2): 170 µg/mL (≈ 353 µM); IC50 (PI3Kγ): > 1000 nM; ED50 [3]: 0.3 mg/kg, bid; ED50 [4]: 0.1 mg/Kg, bid; IC50 (PI3Kα): > 1000 nM; IC50 (PI3Kβ): > 10000 nM; IC50 [5]: 6 nM
